In PubChem BioAssay (NCI) one finds GI50 and TGI data, which are given here for 17 molecules.

What all share (test): growth of human tumour cells (NCI), 48 h
Assay [1] has as its system HOP-62 NSCLC.
Assay [2] concerns COLO 205 colon.
Assay [3] deals with UACC-257 melanoma.
Assay [4] deals with PC-3 prostate.
Assay [5] relates to U251 CNS.
The subject of assay [6] is NCI/ADR-RES ovarian.
The test system of assay [7] is SR leukemia.
Assay [8] relates to NCI-H522 lung.
Assay [9] relates to SN12C renal.
Assay [10] relates to SK-OV-3 ovarian.

Several values for one entry are separate records, joined by “and”; a condition that tells them apart may be missing. Equal values may be shown once.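 Values below derive from 48-hour exposures of cells grown in 96-well plates, with endpoints linearly interpolated between the two concentrations bracketing the appropriate inhibition level. Abbreviation: GI50, concentration required for 50% inhibition of growth. TGI marks complete inhibition of growth.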

With `Oc1c(I)cc(I)cc1CN(Cc1ccccn1)Cc1ccccn1`, the GI50 in [1] was 311 nM; in [2], 2000 nM; in assay [3], 2800 nM; in assay [4], 898 nM; in [5], 419 nM; in [6], 1.13 µM. Besides, the GI50 in [7] was 476 nM; in assay [8], 2.04 µM; in assay [9] it was 1230 nM; in [10], 0.476 µM. Further, the TGI in [1] came out at 8.45 µM; in assay [2], 15.1 µM; in assay [3] it was 14.5 µM; in assay [4] it was 20.6 µM; in assay [5], 11.7 µM; in [6] it was 6.46 µM. Besides, the TGI was found to be 9.77 µM in assay [7], 28 µM in [8], 33.6 µM in assay [9] and 5.3 µM in assay [10].

Take `COc1cnc2c(c1)C(=O)c1c-2n(CCCNC(C)C)c(=O)c2cc([N+](=O)[O-])ccc12`: the GI50 in [1] was 85.3 nM; in assay [2], 29.3 nM; in assay [3], 195 nM; in assay [4], 211 nM; in [5], 30.3 nM; in assay [6], 0.0343 µM. Further, the results for the GI50 in [8], in [9] and in assay [10] were 0.0233 µM, 39.3 nM and 0.0409 µM, respectively. Also, the TGI is 0.34 µM in assay [1]; 0.225 µM in assay [2]; 1.44 µM in [3]; 3.07 µM in assay [4]; 0.158 µM in [5]; 0.267 µM in [6]. In addition, the TGI in assay [7] came to 0.226 µM; in assay [8], 0.158 µM; in [9], 0.438 µM; in assay [10], 0.201 µM.

With `C=C(C)[C@@H]1CC[C@]2(C(N)=O)CC[C@]3(C)[C@H](CC[C@@H]4[C@@]5(C)C/C(=C/c6cccnc6)[C@H](O)C(C)(C)[C@@H]5CC[C@]43C)[C@@H]12`, the GI50 is 9520 nM in assay [1]; 3100 nM in assay [2]; 5830 nM in assay [3]; 2940 nM in assay [4]; 4610 nM in [5]; 3.74 µM in assay [6]. For the same molecule, the GI50 is 4310 nM in [7], 3.93 µM in [8], 4820 nM in [9] and 5.26 µM in assay [10]. In addition, the TGI in assay [1] is over 100 µM; in assay [2], 12.4 µM; in assay [3], over 100 µM; in assay [4], over 100 µM; in assay [5], over 100 µM; in assay [6], over 100 µM. For the same molecule, the TGI in assay [7], in assay [8], in assay [9] and in [10] was over 100 µM in each case.

On to `CC[CH2][Sn]([CH2]CC)([O]C(=O)Cc1ccc(F)cc1)[O][Sn]([CH2]CC)([CH2]CC)[O]C(=O)Cc1ccc(F)cc1`, for which the GI50 in assay [1] was 1250 nM; in assay [2] it was 266 nM; in assay [3], 204 nM; in assay [4], 1000 nM; in [5] it was 131 nM; in assay [6], 0.574 µM. In addition, the GI50 in [7] is 78.1 nM; in [9] it was 262 nM; in assay [10] it was 0.774 µM. Besides, the TGI in [1] was found to be 2.69 µM; in assay [2], 0.857 µM; in assay [3], 0.869 µM; in assay [4] it was 2.16 µM; in assay [5] it was 0.431 µM; in assay [6], 1.93 µM. Moreover, the TGI in assay [7] was 5.03 µM; in assay [8], 0.0322 µM; in [9] it was 1 µM; in [10], 2.11 µM.

As to `COc1ccc2nc(-c3cc4c([nH]c5ccccc54)c(-c4ccc(F)c(F)c4)n3)[nH]c2c1`, the GI50 is 10900 nM in [1]; 1880 nM in assay [2]; 5680 nM in assay [3]; 3250 nM in assay [4]; 2770 nM in assay [5]; 4.22 µM in assay [6]. The GI50 in assay [7] was 1970 nM; in assay [8], 10 µM; in assay [9], 3970 nM; in [10], 17.1 µM. The TGI in [1] was 25.5 µM; in assay [2], 4.66 µM; in assay [3], 22 µM; in assay [4], 22.5 µM; in [5] it was 10.2 µM; in assay [6], 64.8 µM. Further, the TGI in [7] was 6.7 µM; in assay [8], 33.8 µM; in assay [9], 23.5 µM; in [10], 31.4 µM.

For the molecule `Nc1nc(-c2cccs2)cs1`, the TGI in assay [1], in assay [2], in assay [3], in assay [4], in assay [5] and in [6] was over 100 µM throughout. For the same molecule, the TGI in [7], in assay [8], in assay [9] and in assay [10] was over 100 µM in each case.

Regarding `C=C(CN(C)C)C(=O)c1ccc(Oc2ccccc2)cc1`, the TGI was 43.7 µM in assay [1]; 3.35 µM in assay [2]; 17.7 µM in assay [3]; 11.6 µM in assay [4]; 23.7 µM in [5]; over 100 µM in assay [6]. Also, the TGI in assay [7] amounted to 4.24 µM; in assay [8] it was 2.72 µM; in assay [9] it was 16.4 µM; in [10], 47.9 µM.

On to `c1ccc2c3c(ccc2c1)-c1c(ccc2c(NCCCCN4CCCCC4)cccc12)C3`, for which the GI50 in assay [1] was 1570 nM; in assay [2] it was 2330 nM; in assay [3], 1890 nM; in assay [4] it was 1610 nM; in assay [5], 1770 nM; in assay [6], 1.61 µM. In addition, the GI50 in assay [7] is 1370 nM; in assay [8] it was 3.42 µM; in [9], 1620 nM; in assay [10] it was 10 µM. Besides, the TGI stood at 2.91 µM in assay [1]; 6.77 µM in [2]; 4.92 µM in assay [3]; 3.23 µM in [4]; 3.16 µM in assay [5]; 2.96 µM in [6]. Moreover, the TGI in assay [7] is 5.4 µM; in assay [8] it was 9.22 µM; in [9], 3.05 µM; in assay [10], 35.3 µM.

Consider `Cc1cc2nc(C(Cl)Cl)nc(-c3ccccc3)n2n1`, for which the GI50 in [1] was 2480 nM; in [2], 1770 nM; in [3], 7350 nM; in [4] it was 4770 nM; in assay [5], 3130 nM; in assay [6], 3.78 µM. Moreover, the GI50 in assay [7] is 2300 nM; in assay [8], 4.27 µM; in assay [9], 24700 nM; in assay [10] it was 3.34 µM. For the same molecule, the TGI in [1] was 8.64 µM; in assay [2], 4.56 µM; in assay [3], 34.2 µM; in [4], 37.9 µM; in assay [5], 24.3 µM; in assay [6], 29.9 µM. The TGI was over 100 µM in [7], over 100 µM in assay [8], over 100 µM in [9] and 21.5 µM in assay [10].

`CC#CC(=O)N1CC[C@@H](n2c(=O)n(-c3ccc(Oc4ccccc4)cc3)c3c(N)ncnc32)C1`: the GI50 is 33500 nM in assay [1]; 36600 nM in assay [2]; 51800 nM in assay [3]; 29100 nM in assay [4]; 35800 nM in assay [5]; 24.2 µM in assay [6]. Besides, the GI50 is 14300 nM in assay [7], 10.8 µM in [8], 20800 nM in assay [9] and 40.6 µM in assay [10]. Besides, the TGI in assay [1], in assay [2], in assay [3], in [4], in [5] and in assay [6] was over 100 µM each time. In addition, the TGI in assay [7] is over 100 µM; in assay [8], 92.7 µM; in assay [9], over 100 µM; in assay [10], over 100 µM.

On to `Cc1cc(N(CCOS(C)(=O)=O)CCOS(C)(=O)=O)ccc1C=Nc1ccc(-c2csc(-c3ccc(Br)cc3)n2)cc1`, for which the TGI in assay [1] turned out to be 26.4 µM; in assay [2], 2.89 µM; in assay [3], 56.8 µM; in assay [4], 86.8 µM; in [5] it was 60.5 µM; in assay [6], 90.7 µM. The TGI in assay [7] was over 94.3 µM; in assay [8], 1.68 µM; in assay [9], over 79.7 µM; in assay [10] it was 15.6 µM.

Regarding `Nc1ccc(-c2ccc(-c3nc4cc(Cl)c(Cl)cc4[nH]3)cc2)cc1`, the GI50 in [1] was 11700 nM; in assay [2] it was 95.3 nM; in [3] it was 1380 nM; in [4] it was 7990 nM; in assay [5] it was 12000 nM; in assay [6], 3.6 µM. Moreover, the GI50 in assay [7] is 181 nM; in [8], 1.03 µM; in assay [9] it was 17900 nM; in assay [10], over 79.9 µM. The TGI is over 50.5 µM in [1]; over 37.7 µM in assay [2]; over 60.7 µM in assay [3]; over 61.2 µM in [4]; over 53.1 µM in assay [5]; over 79.2 µM in [6]. Further, the TGI in assay [7] was 45.2 µM; in assay [8], over 80.9 µM; in assay [9] it was over 66.7 µM; in assay [10], over 100 µM.

For the molecule `O=C(O)CCSC(=S)Nc1ccc([N+](=O)[O-])cc1`, the TGI in [1] was over 100 µM; in assay [2], over 100 µM; in assay [3], 55.1 µM; in [4], over 100 µM; in assay [5], over 100 µM; in assay [6], over 100 µM. Also, the TGI is 52.9 µM in assay [7], over 68 µM in assay [8], over 100 µM in assay [9] and over 100 µM in [10].

As for `CCN1CCN(c2ccc(Nc3ncc4ccc5ncn(C(C)C)c5c4n3)nc2)CC1`, the GI50 in assay [1] is 92.3 nM; in assay [2], 85.2 nM; in [3], 283 nM; in assay [4] it was 107 nM; in assay [5], 108 nM; in [6], 0.292 µM. The GI50 in assay [7] is 40.2 nM; in assay [8], 0.208 µM; in [9] it was 139 nM; in assay [10] it was 0.271 µM. For the same molecule, the TGI in assay [1] came out at 3.22 µM; in assay [2], 0.342 µM; in [3] it was 27.1 µM; in assay [4] it was 1.36 µM; in assay [5], 3.94 µM; in assay [6], 13.9 µM. Moreover, the TGI is 0.809 µM in assay [8], 17.9 µM in assay [9] and 0.847 µM in assay [10].

On to `CCOC(=O)N1C=CC(=C2C(=C3C=CN(C(=O)OCC)C=C3)C(=C3C=CN(C(=O)OCC)C=C3)C2=C2C=CN(C(=O)OCC)C=C2)C=C1`, for which the TGI is over 100 µM in assay [1]; over 100 µM in assay [2]; over 100 µM in assay [3]; 91.7 µM in [4]; 91.7 µM in assay [5]; over 100 µM in assay [6]. Moreover, the TGI in assay [7] is 26.3 µM; in [8], 65.4 µM; in [9] it was 92.4 µM; in assay [10], over 100 µM.

As to `Cn1c(=N)n[n+]([O-])c2ccccc21`, the TGI in assay [1] is 4.29 µM and 4.98 µM; in assay [2], 5.3 µM and 5.52 µM; in assay [3] it was 5.51 µM and 3.92 µM; in assay [4] it was over 100 µM; in [5], 25.3 µM and 24.1 µM; in assay [6] it was > 100 µM and 42 µM. The TGI is 14.7 µM and 9.32 µM in [7]; 10.7 µM and 15.6 µM in assay [8]; 3.29 µM and 4.19 µM in [9]; 46.9 µM and 52.5 µM in [10]. For the same molecule, the GI50 in assay [6] is 4.44 µM and 9.2 µM; in assay [7] it was 3870 nM.

With `O=S(=O)(CCCCl)SCCCCl`, the TGI in assay [1] was over 100 µM; in assay [2] it was over 69.2 µM; in [3], over 100 µM; in [4], over 100 µM; in assay [5], over 69.3 µM; in [6], over 85.3 µM. Besides, the TGI in assay [7] was 60.1 µM; in assay [8], 32.6 µM; in assay [9] it was 64.1 µM; in assay [10] it was over 100 µM.
